For 2 compounds, IC50 results are on record in publication PMC9936582, “Sulfamate Acetamides as Self-Immolative Electrophiles for Covalent Ligand-Directed Release Chemistry” (Journal of the American Chemical Society, 2023).

The target in this experiment is BTK (Homo sapiens, UniProt Q06187). Description: BTK activity (autophosphorylation) in Mino cells, Western blot. The experiment is classed as cell-based. Further details: endogenous in cells; host or cells: Mino cells. Conditions: anti-IgM activation, Western blot normalized to β-actin. As to the method: To assess the cellular efficacy of these compounds, we followed the inhibition of BTK autophosphorylation in Mino cells. After 1 h of pre-incubation with the inhibitors and B-cell activation with an anti-IgM antibody, BTK autophosphorylation was followed by Western blot.
The cell pellets were subjected to immunoblotting, and Western blots were performed for p-BTK, BTK, and β-actin.
Cell pellets were washed with ice-cold PBS and lysed using RIPA buffer (Sigma, R0278). […] Samples containing 50 μg total protein were prepared with 4× LDS sample buffer (NuPAGE, Thermo Scientific, NP0007) and 20 mM DTT, which were then resolved on a 4–20% Bis–Tris gel (GeneScript SurePAGE, M00657). […] An EZ-ECL Kit (Biological Industries, 20-500-1000) was used to detect HRP activity.
For orientation: In western blotting, separated proteins are transferred to a membrane and probed.

Chain of BTK (Q06187 whole entry): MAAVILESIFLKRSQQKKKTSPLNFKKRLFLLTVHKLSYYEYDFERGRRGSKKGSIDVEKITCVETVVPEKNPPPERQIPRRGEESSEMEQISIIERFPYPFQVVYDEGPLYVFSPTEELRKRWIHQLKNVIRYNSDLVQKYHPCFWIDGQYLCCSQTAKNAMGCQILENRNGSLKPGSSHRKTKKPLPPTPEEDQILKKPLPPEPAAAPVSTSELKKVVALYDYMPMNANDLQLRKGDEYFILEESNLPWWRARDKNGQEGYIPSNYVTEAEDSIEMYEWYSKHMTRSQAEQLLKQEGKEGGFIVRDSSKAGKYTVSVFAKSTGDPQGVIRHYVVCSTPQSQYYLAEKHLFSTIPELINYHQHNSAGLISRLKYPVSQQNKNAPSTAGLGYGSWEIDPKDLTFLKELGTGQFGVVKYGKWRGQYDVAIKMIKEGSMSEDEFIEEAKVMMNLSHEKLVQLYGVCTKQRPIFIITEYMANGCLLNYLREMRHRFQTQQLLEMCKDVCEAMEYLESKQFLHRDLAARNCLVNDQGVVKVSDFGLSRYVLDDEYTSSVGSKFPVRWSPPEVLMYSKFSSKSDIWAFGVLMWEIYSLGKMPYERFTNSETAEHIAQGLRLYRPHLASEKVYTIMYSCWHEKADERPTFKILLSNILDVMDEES

As for `CNS(=O)(=O)OCC(=O)N1CCC[C@@H](n2nc(-c3ccc(Oc4ccccc4)cc3)c3c(N)ncnc32)C1` [3c], the IC50 (as a rule, the concentration that inhibits the measured activity by half) was found to be 3.6 nM.
Compound `Nc1ncnc2c1c(-c1ccc(Oc3ccccc3)cc1)nn2[C@@H]1CCCN(C(=O)COS(=O)(=O)NCc2ccccc2)C1` [3d] yielded an IC50 of 164 nM.
